Reference: patent publication US11512280B2, “Method for culturing spore-forming bacteria, and method for producing useful substance” (priority 2016, dated 2022)

Legend:
Type in all cases: cell-based
[1] = test system: Bacillus subtilis MBI-600; assay: Culture of Bacillus subtilis with sporulation-inhibiting and sporulation-accelerating substances, 45 hours (Example 2)
Description: (§1) Using a 500 ml Erlenmeyer flask (with baffles), each 100 ml of media listed in Table 1 was prepared and then autoclave sterilization was carried out. Note that glucose was separately sterilized and aseptically mixed in order to avoid Maillard reaction.
(§2) Test sections were set as described in Table 3. According to the conditions of each test section, the filter-sterilized aqueous solution of each sporulation-inhibiting substance was added aseptically to each medium. According to the conditions of each test section, one loopful of Bacillus subtilis MBI-600 was taken from a colony grown on a nutrient agar medium, inoculated, and then cultured with shaking at 30° C. and 150 rpm.
Sixteen (16) hours after the start of culture, each sporulation-accelerating substance was added according to the conditions of each test section, culture was continued. Forty-five (45) hours after the start of culture, culture was stopped.
(§3) Each of the thus obtained culture liquid was diluted 10-fold with sterile water, and then the bacterial cell concentration (vegetative cells and spores) and the sporulation rate (spore concentration/bacterial cell concentration) were measured using an optical microscope and a bacterial cell counter.

[2] = test system: Bacillus thuringiensis NBRC 101235 strain; assay: Culture of Bacillus thuringiensis with sporulation-inhibiting substance, 40 hours (Example 3); settings: for Bacterial cell concentration / Spore concentration / Sporulation rate: 40 hours culture
Description: as §1
as §2, with “According” for “Test sections were set as described in Table 3. According”, “thuringiensis NBRC 101235 strain” for “subtilis MBI-600”, “rpm for 40 hours.” for “rpm.”
as §3

[3] = test system: Bacillus subtilis MBI-600; assay: Culture of Bacillus subtilis with sporulation-inhibiting substance, 64 hours (Example 1); settings: for Spore concentration / Sporulation rate / Bacterial cell concentration: 64 hours culture; for bacterial cell concentrations as the concentration of the substance increased: trend over tested concentrations
Description: Using a 500 ml Erlenmeyer flask (with baffles), each 100 ml of media listed in Table 1 was prepared and then autoclave sterilization was carried out. Glucose was separately sterilized and aseptically mixed in order to avoid Maillard reaction.
as §2, with “According” for “Test sections were set as described in Table 3. According”, “One” for “According to the conditions of each test section, one”, “rpm for 64 hours.” for “rpm.”
as §3

[4] = sporulation-accelerating substance 3,000 ppm added at 16 hours, no inhibiting substance, 45 hours culture
[5] = 1.4 ppm plus decoyinine 200 ppm at 16 hours, 45 hours
[6] = 1.4 ppm, no accelerating substance, 45 hours
[7] = 0.3 ppm plus ammonium lactate 3,000 ppm at 16 hours, 45 hours
[8] = 0.3 ppm, no accelerating substance, 45 hours
[9] = 0.5 ppm plus ammonium acetate 2,000 ppm at 16 hours, 45 hours
[10] = 0.5 ppm plus ammonium acetate 3,000 ppm at 16 hours, 45 hours
[11] = 0.5 ppm plus ammonium acetate 4,000 ppm at 16 hours, 45 hours
[12] = 0.5 ppm plus ammonium lactate 3,000 ppm at 16 hours, 45 hours
[13] = 0.5 ppm, no accelerating substance, 45 hours
[14] = 1.0 ppm, no accelerating substance, 45 hours
[15] = 2.0 ppm, no accelerating substance, 45 hours

SMILES: CC(=O)O.N [Ammonium acetate]
- bacterial cell concentration and sporulation rate as the amount of ammonium acetate added increased ([1]; lincomycin 0.5 ppm with ammonium acetate): increased
- spore productivity compared with test sections in which no such substance had been added ([1]; lincomycin 0.5 ppm with ammonium acetate added): significantly higher
- Bacterial cell concentration [1, 4]: 4.6e+09 mL⁻¹
- Spore concentration [1, 4]: 4.2e+09 mL⁻¹
- Sporulation rate [1, 4]: 91%

SMILES: C=C1O[C@@](CO)(n2cnc3c(N)ncnc32)[C@H](O)[C@@H]1O [Decoyinine]
- Sporulation rate ([1]; decoyinine added during culture in addition to chloramphenicol 1.4 ppm): improvement was observed

SMILES: O=C(N[C@H](CO)[C@H](O)c1ccc([N+](=O)[O-])cc1)C(Cl)Cl [Chloramphenicol]
- effect of inhibiting sporulation ([1]; 1.4 ppm): observed
- Bacterial cell concentration [1, 5]: 5.4e+09 mL⁻¹
- Spore concentration [1, 5]: 4.1e+09 mL⁻¹
- Sporulation rate [1, 5]: 76%
- Bacterial cell concentration [1, 6]: 5.4e+09 mL⁻¹
- Sporulation rate [1, 6]: 0%
- spore productivity compared with test sections in which no such substance had been added ([1]; chloramphenicol 1.4 ppm, both test sections (with and without decoyinine)): improved
- bacterial cell concentration and spore concentration ([2]; 2.0 ppm): tended to increase
- Bacterial cell concentration ([2]; 2.0 ppm): 1.6e+09 mL⁻¹
- Spore concentration ([2]; 2.0 ppm): 1.3e+09 mL⁻¹
- Sporulation rate ([2]; 2.0 ppm): 79%
- the growth and the effect of inhibiting sporulation ([2]; 6.0 ppm): confirmed
- Bacterial cell concentration ([2]; 6.0 ppm): 8e+06 mL⁻¹
- Sporulation rate ([2]; 6.0 ppm): 0%

SMILES: CCC[C@@H]1C[C@@H](C(=O)N[C@@H]([C@H]2O[C@H](SC)[C@H](O)[C@@H](O)[C@H]2O)[C@@H](C)O)N(C)C1 [Lincomycin]
- effect of inhibiting sporulation ([3]; 0.1 ppm): not observed
- Spore concentration ([3]; 0.1 ppm added): 4.7e+09 mL⁻¹
- Sporulation rate ([3]; 0.1 ppm added): 100%
- Bacterial cell concentration ([3]; 0.1 ppm added, carbon content 9.1 g/L): 4.7e+09 mL⁻¹
- effect of inhibiting sporulation ([3]; 1 ppm): observed
- Bacterial cell concentration ([3]; 1.0 ppm added): 7e+09 mL⁻¹
- Sporulation rate ([3]; 1.0 ppm added): 0%
- bacterial cell concentrations as the concentration of the substance increased [3]: tended to increase
- effect of inhibiting sporulation ([1]; 0.3 ppm): not observed
- Bacterial cell concentration [1, 7]: 5.6e+09 mL⁻¹
- Spore concentration [1, 7]: 5.1e+09 mL⁻¹
- Sporulation rate [1, 7]: 91%
- Bacterial cell concentration [1, 8]: 3.3e+09 mL⁻¹
- Spore concentration [1, 8]: 2.7e+09 mL⁻¹
- Sporulation rate [1, 8]: 80%
- effect of inhibiting sporulation ([1]; 0.5 ppm or more): observed
- Bacterial cell concentration [1, 9]: 6.4e+09 mL⁻¹
- Spore concentration [1, 9]: 4.1e+09 mL⁻¹
- Sporulation rate [1, 9]: 64%
- Bacterial cell concentration [1, 10]: 7.6e+09 mL⁻¹
- Spore concentration [1, 10]: 5.4e+09 mL⁻¹
- Sporulation rate [1, 10]: 71%
- Bacterial cell concentration [1, 11]: 8.4e+09 mL⁻¹
- Spore concentration [1, 11]: 6.1e+09 mL⁻¹
- Sporulation rate [1, 11]: 72%
- Bacterial cell concentration [1, 12]: 7.2e+09 mL⁻¹
- Spore concentration [1, 12]: 5.7e+09 mL⁻¹
- Sporulation rate [1, 12]: 79%
- Bacterial cell concentration [1, 13]: 4.4e+09 mL⁻¹
- Sporulation rate [1, 13]: 0%
- Bacterial cell concentration [1, 14]: 5.1e+09 mL⁻¹
- Sporulation rate [1, 14]: 0%
- Bacterial cell concentration [1, 15]: 5.9e+09 mL⁻¹
- Sporulation rate [1, 15]: 0%
- bacterial cell concentrations as the concentration of the substance increased ([1]; trend over tested concentrations): tended to increase
- Bacterial cell concentration ([2]; 5.0 ppm): 1.4e+09 mL⁻¹
- Spore concentration ([2]; 5.0 ppm): 1.2e+09 mL⁻¹
- Sporulation rate ([2]; 5.0 ppm): 86%
- bacterial cell concentration and spore concentration ([2]; 10.0 ppm or lower): tended to increase
- Bacterial cell concentration ([2]; 10.0 ppm): 1.4e+09 mL⁻¹
- Spore concentration ([2]; 10.0 ppm): 1e+09 mL⁻¹
- Sporulation rate ([2]; 10.0 ppm): 71%
- effect of inhibiting sporulation ([2]; 12.5 ppm): confirmed
- Bacterial cell concentration ([2]; 12.5 ppm): 9e+08 mL⁻¹
- Spore concentration ([2]; 12.5 ppm): 1e+08 mL⁻¹
- Sporulation rate ([2]; 12.5 ppm): 13%

SMILES: [H]/N=C(/N)N[C@H]1[C@H](O)[C@@H](O)[C@H](O[C@@H]2O[C@@H](C)[C@](O)(C=O)[C@H]2O[C@@H]2O[C@@H](CO)[C@H](O)[C@@H](O)[C@@H]2NC)[C@@H](N/C(N)=N\[H])[C@@H]1O [Streptomycin]
- effect of inhibiting sporulation ([3]; 12.5 ppm): not observed
- Bacterial cell concentration ([3]; 12.5 ppm added): 4.3e+09 mL⁻¹
- Spore concentration ([3]; 12.5 ppm added): 4.3e+09 mL⁻¹
- Sporulation rate ([3]; 12.5 ppm added): 100%
- effect of inhibiting sporulation ([3]; 15.0 ppm): observed
- Bacterial cell concentration ([3]; 15.0 ppm added): 5.5e+09 mL⁻¹
- Spore concentration ([3]; 15.0 ppm added): 3e+09 mL⁻¹
- Sporulation rate ([3]; 15.0 ppm added): 54%
- bacterial cell concentrations as the concentration of the substance increased [3]: tended to increase

SMILES: CC(O)C(=O)O.N (centres unmarked) [Ammonium lactate]
- sporulation rate compared with test sections in which no accelerating substance had been added ([1]; ammonium lactate added, regardless of the lincomycin concentration): improvement was observed
- spore productivity compared with test sections in which no such substance had been added ([1]; lincomycin 0.3 ppm and 0.5 ppm with ammonium lactate added): significantly higher
- Bacterial cell concentration [1, 4]: 5.2e+09 mL⁻¹
- Spore concentration [1, 4]: 4.8e+09 mL⁻¹
- Sporulation rate [1, 4]: 91%
